Test [1] has as its system uveal melanoma cell lines 92-1 or MP41. Briefly: Growth inhibition of uveal melanoma cell lines, compound 67 compared with clinical PKC and MEK inhibitors, 3 days, Cell-titer glo. The following applies: vs LXS196 and Selumetinib. Type of test: cell-based.
Test [2] deals with uveal melanoma cell lines (92-1, MP41, MP38, MP46). The test is described as follows: Growth of uveal melanoma cell lines with compound 67, 3 days, Cell-titer glo. Type of test: cell-based. The conditions noted are these: 0 to 10 micromolar.
A further test addresses T1, BRM (Homo sapiens, UniProt P51531).
T1 construct: made in house; host or cells: High Five insect cells
The test is described as follows: ATPase catalytic activity of BRM, ADP-Glo in vitro biochemical assay. The following applies: 30 nM BRM, 400 μM ATP, read-out: BRM IP50. On the technique in general: In ADP-Glo the light output rises with the ADP produced.

Another test concerns the target T2, BRG-1 (Homo sapiens, UniProt P51532).
T2 construct: made in house; host or cells: High Five insect cells
Briefly: ATPase catalytic activity of BRG-1, ADP-Glo in vitro biochemical assay. The conditions noted are these: 30 nM BRG-1, 400 μM ATP, read-out: BRG1 IP50.

Test [3] deals with uveal melanoma cell line 92-1. Briefly: Inhibition of cell proliferation of uveal melanoma cell line 92-1. Type of test: cell-based.
Test [4] concerns several cancer cell lines. The test is described as follows: Inhibition of cell proliferation of several cancer cell lines. Type of test: cell-based.
In test [5] the test system is uveal melanoma cell lines 92-1 or MP41. The test is described as follows: Growth inhibition of uveal melanoma cell lines, Compound A compared with clinical PKC and MEK inhibitors, 3 days, Cell-titer glo. Format: cell-based. The following applies: vs LXS196 and Selumetinib.
For test [6], the system named is uveal melanoma cell line MP41. The test is described as follows: Inhibition of cell proliferation of uveal melanoma cell line MP41. Type of test: cell-based.
Test [7] deals with MP41 uveal melanoma cells, parental and PKCi-resistant. The test is described as follows: 7-day growth inhibition assay in parental and PKC inhibitor-resistant MP41 cells. Type of test: cell-based. The conditions noted are these: 7-day assay.
Test [8] concerns parental and PKC-inhibitor refractory uveal melanoma cell lines. The test is described as follows: Inhibition of cell proliferation of parental and PKC-inhibitor refractory uveal melanoma cell lines. Type of test: cell-based.
Where [9] appears, read: 92-1 or MP41, 3 days, 0 to 10 micromolar.

pIC50: −log10 of the molar value.

T1 sequence (P51531 whole entry): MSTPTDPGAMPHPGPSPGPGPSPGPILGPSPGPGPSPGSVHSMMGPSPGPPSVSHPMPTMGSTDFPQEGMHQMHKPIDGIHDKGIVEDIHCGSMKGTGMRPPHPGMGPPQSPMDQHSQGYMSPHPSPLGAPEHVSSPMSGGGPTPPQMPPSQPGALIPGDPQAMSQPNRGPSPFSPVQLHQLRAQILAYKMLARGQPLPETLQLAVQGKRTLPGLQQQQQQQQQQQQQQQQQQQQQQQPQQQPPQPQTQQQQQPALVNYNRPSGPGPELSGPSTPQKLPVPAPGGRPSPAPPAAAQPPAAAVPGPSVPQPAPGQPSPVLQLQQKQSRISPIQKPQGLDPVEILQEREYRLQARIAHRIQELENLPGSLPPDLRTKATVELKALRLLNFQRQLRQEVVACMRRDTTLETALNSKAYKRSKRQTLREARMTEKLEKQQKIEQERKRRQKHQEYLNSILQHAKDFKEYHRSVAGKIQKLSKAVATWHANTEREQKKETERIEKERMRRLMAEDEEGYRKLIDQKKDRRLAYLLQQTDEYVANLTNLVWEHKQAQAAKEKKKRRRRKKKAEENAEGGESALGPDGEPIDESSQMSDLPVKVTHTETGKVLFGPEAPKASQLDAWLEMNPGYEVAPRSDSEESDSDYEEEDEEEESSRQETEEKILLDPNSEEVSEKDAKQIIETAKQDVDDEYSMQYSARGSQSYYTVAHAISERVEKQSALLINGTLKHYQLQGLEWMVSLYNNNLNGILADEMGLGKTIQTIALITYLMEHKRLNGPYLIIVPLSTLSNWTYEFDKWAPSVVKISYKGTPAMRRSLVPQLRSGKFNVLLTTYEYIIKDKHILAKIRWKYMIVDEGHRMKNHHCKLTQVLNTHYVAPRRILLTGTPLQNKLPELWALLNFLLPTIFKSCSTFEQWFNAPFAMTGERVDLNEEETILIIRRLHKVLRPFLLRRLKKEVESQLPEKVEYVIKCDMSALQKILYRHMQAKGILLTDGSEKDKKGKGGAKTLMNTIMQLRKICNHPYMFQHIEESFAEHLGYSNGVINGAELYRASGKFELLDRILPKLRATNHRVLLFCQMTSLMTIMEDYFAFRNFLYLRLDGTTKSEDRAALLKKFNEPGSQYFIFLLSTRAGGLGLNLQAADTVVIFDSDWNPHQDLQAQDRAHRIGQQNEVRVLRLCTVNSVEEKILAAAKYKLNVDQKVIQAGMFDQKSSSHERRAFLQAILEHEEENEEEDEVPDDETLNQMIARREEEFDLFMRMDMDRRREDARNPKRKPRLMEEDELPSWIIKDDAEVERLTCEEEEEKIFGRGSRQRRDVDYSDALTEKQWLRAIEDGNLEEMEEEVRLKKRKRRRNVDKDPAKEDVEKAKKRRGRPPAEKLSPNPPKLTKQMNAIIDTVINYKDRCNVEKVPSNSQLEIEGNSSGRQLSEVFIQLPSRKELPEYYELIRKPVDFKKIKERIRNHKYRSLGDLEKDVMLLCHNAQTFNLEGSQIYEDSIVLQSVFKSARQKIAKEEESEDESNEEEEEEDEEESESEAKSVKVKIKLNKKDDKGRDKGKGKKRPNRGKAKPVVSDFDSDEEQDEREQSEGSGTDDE
T2 sequence (P51532 whole entry): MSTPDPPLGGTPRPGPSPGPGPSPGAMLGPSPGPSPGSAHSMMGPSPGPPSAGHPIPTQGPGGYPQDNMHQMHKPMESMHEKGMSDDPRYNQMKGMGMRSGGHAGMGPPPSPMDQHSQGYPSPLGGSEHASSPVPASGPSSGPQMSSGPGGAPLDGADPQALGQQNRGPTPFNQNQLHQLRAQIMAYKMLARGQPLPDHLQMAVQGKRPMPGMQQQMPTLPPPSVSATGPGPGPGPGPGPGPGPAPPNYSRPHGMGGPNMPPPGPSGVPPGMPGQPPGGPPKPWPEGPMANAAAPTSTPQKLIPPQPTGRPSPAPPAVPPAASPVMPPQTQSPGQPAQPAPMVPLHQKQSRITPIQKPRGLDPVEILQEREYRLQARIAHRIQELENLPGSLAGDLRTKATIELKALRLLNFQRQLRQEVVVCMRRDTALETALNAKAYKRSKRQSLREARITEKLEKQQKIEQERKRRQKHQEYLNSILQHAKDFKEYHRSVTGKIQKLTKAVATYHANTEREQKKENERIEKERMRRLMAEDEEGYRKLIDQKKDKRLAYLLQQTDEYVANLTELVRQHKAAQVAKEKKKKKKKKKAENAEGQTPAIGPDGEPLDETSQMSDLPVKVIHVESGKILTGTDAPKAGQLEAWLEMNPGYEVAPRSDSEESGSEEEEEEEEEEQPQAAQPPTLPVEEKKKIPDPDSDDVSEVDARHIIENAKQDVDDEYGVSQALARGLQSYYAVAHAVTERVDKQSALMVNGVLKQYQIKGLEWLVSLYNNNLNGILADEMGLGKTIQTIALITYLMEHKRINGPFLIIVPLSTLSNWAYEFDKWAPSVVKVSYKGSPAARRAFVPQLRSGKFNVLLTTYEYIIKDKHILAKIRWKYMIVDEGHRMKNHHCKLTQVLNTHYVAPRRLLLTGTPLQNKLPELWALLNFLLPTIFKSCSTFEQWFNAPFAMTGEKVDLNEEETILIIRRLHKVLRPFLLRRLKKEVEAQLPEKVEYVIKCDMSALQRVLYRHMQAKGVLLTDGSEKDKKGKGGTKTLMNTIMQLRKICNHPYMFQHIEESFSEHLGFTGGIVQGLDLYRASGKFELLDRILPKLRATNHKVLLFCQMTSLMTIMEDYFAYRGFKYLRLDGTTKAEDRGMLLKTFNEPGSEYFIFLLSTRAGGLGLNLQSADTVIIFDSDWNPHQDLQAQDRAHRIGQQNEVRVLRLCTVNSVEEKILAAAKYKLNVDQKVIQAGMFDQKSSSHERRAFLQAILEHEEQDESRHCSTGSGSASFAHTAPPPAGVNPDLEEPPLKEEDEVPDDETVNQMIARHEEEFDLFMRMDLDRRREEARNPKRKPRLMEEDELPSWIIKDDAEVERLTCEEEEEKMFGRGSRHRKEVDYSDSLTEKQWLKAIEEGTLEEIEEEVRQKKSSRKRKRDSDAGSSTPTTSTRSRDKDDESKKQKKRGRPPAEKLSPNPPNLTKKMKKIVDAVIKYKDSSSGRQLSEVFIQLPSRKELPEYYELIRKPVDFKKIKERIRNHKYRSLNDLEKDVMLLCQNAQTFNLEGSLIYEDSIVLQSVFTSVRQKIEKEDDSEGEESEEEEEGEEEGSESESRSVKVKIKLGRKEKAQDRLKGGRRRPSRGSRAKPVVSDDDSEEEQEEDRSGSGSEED

On to `CSCC[C@H](NC(=O)c1ccn(S(C)(=O)=O)c1)C(=O)Nc1nc(-c2cccc(-c3ccncc3)c2)cs1` [Compound 67, (S)-1-(methylsulfonyl)-N-(4-(methylthio)-1-oxo-1-((4-(3-(pyridin-4-yl)phenyl)thiazol-2-yl)amino)butan-2-yl)-1H-pyrrole-3-carboxamide], for which the “growth inhibition of uveal melanoma cells compared with clinical PKC and MEK inhibitors (FIG. 6A, 6B)” value in test [1] (setting [9]) was “more potent effects on growth inhibition”. Further, the “onset of growth inhibition compared with clinical PKC and MEK inhibitors” value in [1] (92-1 or MP41) was “faster onset of growth inhibition”. Moreover, the “growth inhibition in uveal melanoma cell lines (FIG. 5)” value in test [2] is “potent growth inhibition”.
On to `C[C@H](NC(=O)c1ccn(C2(C#N)CC2)n1)C(=O)Nc1nc(-c2ccc3ccn(C)c(=O)c3c2)cs1` [Compound 805], for which the pIC50 on BRM and at BRG-1 was below 7.00 each time.
In the case of `C[C@@H]1CN(c2cccc(-c3csc(NC(=O)CNC(=O)c4ccn(C5(C#N)CC5)n4)n3)n2)C[C@H](C)O1` [Compound 806], the pIC50 at BRM and at BRG-1 was below 8.00 in each case.
Turning to `CN1CCOc2ccc(-c3csc(NC(=O)CNC(=O)c4ccn(C5(C#N)CC5)n4)n3)cc21` [Compound 811], the values for the pIC50 at BRM and on BRG-1 were below 8.00 and below 7.00, respectively.
In the same order, the values of `COC[C@H](NC(=O)c1ccn(C2(C#N)CC2)n1)C(=O)Nc1nc(-c2ccc3ccn(C)c(=O)c3c2)cs1` [Compound 812] are below 7.00 and below 7.00.
In the same order, the values of `Cn1ccc(-c2cccc(-c3csc(NC(=O)CNC(=O)c4ccn(C5(C#N)CC5)n4)n3)c2)n1` [Compound 813] are below 8.00 and below 7.00.
For `N#CC1(n2ccc(C(=O)NCC(=O)Nc3nc(-c4cccc(N5CCC5)c4)cs3)n2)CC1` [Compound 814], in that order: below 8.00 and below 7.00.
Regarding `COC[C@H](NC(=O)c1ccn(C2(C#N)CC2)n1)C(=O)Nc1nc(-c2cccc(-c3ccn(C)n3)c2)cs1` [Compound 815], the pIC50 at BRM and at BRG-1 was below 7.00 throughout.
In the case of `COC[C@H](NC(=O)c1ccn(C(C)(C)C#N)n1)C(=O)Nc1nc(-c2ccc3ccn(C)c(=O)c3c2)cs1` [Compound 816], the pIC50 on BRM and on BRG-1 was below 8.00 each time.
`COC[C@H](NC(=O)c1ccn(C(C)(C)C#N)n1)C(=O)Nc1nc(-c2cc(C)cc(N3C[C@@H](C)O[C@@H](C)C3)n2)cs1` [Compound 817]: the pIC50 on BRM and at BRG-1 was below 8.00 throughout.
With `COC[C@H](NC(=O)c1cn(C(C)(C)C#N)cn1)C(=O)Nc1nc(-c2cc(C)cc(N3C[C@@H](C)O[C@@H](C)C3)n2)cs1` [Compound 818], the pIC50 at BRM and at BRG-1 was below 8.00 throughout.
On to `C[C@@H]1CN(c2cccc(-c3csc(NC(=O)CNC(=O)c4cn(C(C)(C)C#N)cn4)n3)n2)C[C@H](C)O1` [Compound 819], for which the pIC50 at BRM and on BRG-1 was below 8.00 each time.
For the molecule `CC(C)(C)c1cnc(C(=O)NCC(=O)Nc2nc(-c3cccc(N4CCC4)c3)cs2)s1` [Compound 820], the pIC50 at BRM and on BRG-1 was below 7.00 each time.
For the molecule `COC[C@H](NC(=O)c1ncc(C(C)(C)C)o1)C(=O)Nc1nc(-c2cccc(-c3cnn(C)n3)c2)cs1` [Compound 821], the pIC50 at BRM and at BRG-1 was below 8.00 in each case.
For `C[C@@H]1CN(c2cccc(-c3csc(NC(=O)CNC(=O)c4ncc(C(C)(C)C)s4)n3)n2)C[C@H](C)O1` [Compound 822], the pIC50 at BRM is below 8.00; at BRG-1 it was below 7.00.
For `C[C@@H]1CN(c2cccc(-c3csc(NC(=O)CNC(=O)c4ncc(C(C)(C)C)o4)n3)c2)C[C@H](C)O1` [Compound 823], in that order: above 8.00 and below 8.00.
For `COc1cnc(C(=O)NCC(=O)Nc2nc(-c3cccc(N4C[C@@H](C)O[C@@H](C)C4)n3)cs2)o1` [Compound 824], in that order: below 7.00 and below 7.00.
Take `COC[C@H](NC(=O)c1ncc(C(C)(C)C)o1)C(=O)Nc1nc(-c2cc(F)cc(-c3cnn(C)n3)c2)cs1` [Compound 825]: the pIC50 was above 8.00 at BRM and below 8.00 on BRG-1.
In the same order, the values of `C[C@@H]1CN(c2cccc(-c3csc(NC(=O)CNC(=O)c4ncc(C5(C)COC5)o4)n3)n2)C[C@H](C)O1` [Compound 826] are below 8.00 and below 8.00.
In the same order, the values of `C[C@@H]1CN(c2cccc(-c3csc(NC(=O)CNC(=O)c4ncc(C(C)(C)C)o4)n3)n2)C[C@H](C)O1` [Compound 827] are above 8.00 and below 8.00.
For `CSCC[C@H](NC(=O)c1ccc(N)cc1)C(=O)Nc1nc(-c2cccc(-c3ccncc3)c2)cs1` [Compound A], the “inhibition of cell proliferation” value in [3], in test [4] and in [6] was “inhibition of cell proliferation” throughout. For the same molecule, in test [5] (setting [9]), the “growth inhibition of uveal melanoma cells compared with clinical PKC and MEK inhibitors (FIG. 2A, 2B)” value is “comparable growth inhibition”. In addition, in [5] (92-1 or MP41), the “onset of inhibition compared with clinical PKC and MEK inhibitors” value is “faster onset of inhibition”.
On to `CC1(N)CCN(c2cccnc2NC(=O)c2nc(-c3ncccc3C(F)(F)F)cnc2N)CC1` [LXS196, reference compound], for which the “inhibition of cell proliferation” value in test [3], in test [6] and in test [8] was “inhibition of cell proliferation” throughout. In test [7], the “growth tolerance of PKCi-resistant cells relative to parental MP41 cell line (FIG. 7A)” value is reported as “could tolerate growth at higher concentrations”.
